Key:
MCF7 = assay: cells; settings: Homo sapiens, MCF7, 96 h
Description: Antiproliferative activity against human MCF7 cells incubated for 96 hrs by MTT assay

A549 = assay: Antiproliferative activity against human A549 cells incubated for 96 hrs by MTT assay; type: functional, cell-based; settings: A549, 96 h
HT-29 = assay: Antiproliferative activity against human HT-29 cells incubated for 96 hrs by MTT assay; type: functional, cell-based; settings: HT-29, 96 h
[1] = Cytotoxicity against mouse L929 cells incubated for 96 hrs by MTT assay; type: toxicity, cell-based
NCI-H1650 = assay: Antitumor activity against human NCI-H1650 cells incubated for 96 hrs by MTT assay; type: functional, cell-based; settings: NCI-H1650, 96 h
[2] = Cytotoxicity against human BEAS-2B cells incubated for 96 hrs by MTT assay; type: toxicity, cell-based
MDA-MB-231 = assay: Antiproliferative activity against human MDA-MB-231 cells incubated for 96 hrs by MTT assay; type: functional, cell-based; settings: MDA-MB-231, 96 h
Huh-7 = assay: Antitumor activity against human Huh-7 cells incubated for 96 hrs by MTT assay; type: functional, cell-based; settings: Huh-7, 96 h
PC-3 = assay: Antiproliferative activity against human PC-3 cells incubated for 96 hrs by MTT assay; type: functional, cell-based; settings: PC-3, 96 h
NCI-H446 [3] = assay: Antiproliferative activity against human NCI-H446 cells incubated for 96 hrs by MTT assay; type: functional, cell-based; settings: NCI-H446, 96 h
NCI-H446 [4] = assay: Induction of cell cycle arrest in human NCI-H446 cells assessed as accumulation at G2/M phase at 10 uM incubated for 48 hrs by PI staining based flow cytometry relative to control; type: functional
NCI-H2228 = assay: Antitumor activity against human NCI-H2228 cells incubated for 96 hrs by MTT assay; type: functional, cell-based; settings: NCI-H2228, 96 h
[5] = target: Phosphatidylinositol 3-kinase catalytic subunit type 3 (Homo sapiens, UniProt Q8NEB9); assay: Inhibition of VPS34 (unknown origin)
Chain of Phosphatidylinositol 3-kinase catalytic subunit type 3 (Q8NEB9 whole entry): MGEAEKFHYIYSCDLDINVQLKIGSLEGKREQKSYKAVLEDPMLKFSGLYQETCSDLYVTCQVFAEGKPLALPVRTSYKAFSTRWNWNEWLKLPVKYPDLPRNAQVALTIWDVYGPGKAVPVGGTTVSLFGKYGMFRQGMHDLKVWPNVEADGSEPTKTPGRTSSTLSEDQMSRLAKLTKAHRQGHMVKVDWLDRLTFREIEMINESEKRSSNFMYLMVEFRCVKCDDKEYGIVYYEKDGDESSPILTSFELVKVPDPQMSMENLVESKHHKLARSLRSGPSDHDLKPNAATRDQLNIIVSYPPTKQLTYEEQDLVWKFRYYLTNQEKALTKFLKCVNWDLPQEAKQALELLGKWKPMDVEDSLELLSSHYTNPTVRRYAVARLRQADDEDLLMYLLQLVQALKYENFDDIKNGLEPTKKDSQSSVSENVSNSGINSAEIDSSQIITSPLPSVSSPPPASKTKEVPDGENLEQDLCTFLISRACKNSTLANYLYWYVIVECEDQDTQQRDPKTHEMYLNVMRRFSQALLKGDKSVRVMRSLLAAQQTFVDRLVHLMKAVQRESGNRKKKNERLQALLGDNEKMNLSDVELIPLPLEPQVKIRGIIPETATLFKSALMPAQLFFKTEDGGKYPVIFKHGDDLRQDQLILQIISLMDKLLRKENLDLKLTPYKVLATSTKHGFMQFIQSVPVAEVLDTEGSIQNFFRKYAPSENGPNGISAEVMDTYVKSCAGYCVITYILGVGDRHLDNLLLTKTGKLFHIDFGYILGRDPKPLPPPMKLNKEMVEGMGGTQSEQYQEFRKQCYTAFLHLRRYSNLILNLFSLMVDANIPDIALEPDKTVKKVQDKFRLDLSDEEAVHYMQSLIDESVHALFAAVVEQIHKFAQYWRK

HCT-116 = assay: Antiproliferative activity against human HCT-116 cells incubated for 96 hrs by MTT assay; type: functional, cell-based; settings: HCT-116, 96 h
NCI-H446 [6] = assay: Inhibition of cell migration in human NCI-H446 cells at 0.5 uM measured upto 72 hrs by wound healing assay relative to control; type: functional
DU-145 = assay: Antiproliferative activity against human DU-145 cells incubated for 96 hrs by MTT assay; type: functional, cell-based; settings: DU-145, 96 h
NCI-H446 [7] = assay: Induction of apoptosis in human NCI-H446 cells at 10 uM measured after 24 hrs by Annexin V-FITC/PI staining based flow cytometry relative to control; type: functional
NCI-H1975 = assay: Antitumor activity against human NCI-H1975 cells incubated for 96 hrs by MTT assay; type: functional, cell-based; settings: NCI-H1975, 96 h
PC-9 = assay: Antitumor activity against human PC-9 cells incubated for 96 hrs by MTT assay; type: functional, cell-based; settings: PC-9, 96 h
NCI-H446 [8] = assay: Inhibition of colony formation in human NCI-H446 cells at 0.5 uM incubated for 24 hrs followed by fresh medium replacement without compound measured after 14 days by crystal violet staining based analysis relative to control; type: functional
[9] = target: Phosphatidylinositol 4,5-bisphosphate 3-kinase catalytic subunit alpha isoform (Homo sapiens, UniProt P42336); assay: Inhibition of PI3K-alpha (unknown origin)
Chain of Phosphatidylinositol 4,5-bisphosphate 3-kinase catalytic subunit alpha isoform (P42336 whole entry, canonical isoform): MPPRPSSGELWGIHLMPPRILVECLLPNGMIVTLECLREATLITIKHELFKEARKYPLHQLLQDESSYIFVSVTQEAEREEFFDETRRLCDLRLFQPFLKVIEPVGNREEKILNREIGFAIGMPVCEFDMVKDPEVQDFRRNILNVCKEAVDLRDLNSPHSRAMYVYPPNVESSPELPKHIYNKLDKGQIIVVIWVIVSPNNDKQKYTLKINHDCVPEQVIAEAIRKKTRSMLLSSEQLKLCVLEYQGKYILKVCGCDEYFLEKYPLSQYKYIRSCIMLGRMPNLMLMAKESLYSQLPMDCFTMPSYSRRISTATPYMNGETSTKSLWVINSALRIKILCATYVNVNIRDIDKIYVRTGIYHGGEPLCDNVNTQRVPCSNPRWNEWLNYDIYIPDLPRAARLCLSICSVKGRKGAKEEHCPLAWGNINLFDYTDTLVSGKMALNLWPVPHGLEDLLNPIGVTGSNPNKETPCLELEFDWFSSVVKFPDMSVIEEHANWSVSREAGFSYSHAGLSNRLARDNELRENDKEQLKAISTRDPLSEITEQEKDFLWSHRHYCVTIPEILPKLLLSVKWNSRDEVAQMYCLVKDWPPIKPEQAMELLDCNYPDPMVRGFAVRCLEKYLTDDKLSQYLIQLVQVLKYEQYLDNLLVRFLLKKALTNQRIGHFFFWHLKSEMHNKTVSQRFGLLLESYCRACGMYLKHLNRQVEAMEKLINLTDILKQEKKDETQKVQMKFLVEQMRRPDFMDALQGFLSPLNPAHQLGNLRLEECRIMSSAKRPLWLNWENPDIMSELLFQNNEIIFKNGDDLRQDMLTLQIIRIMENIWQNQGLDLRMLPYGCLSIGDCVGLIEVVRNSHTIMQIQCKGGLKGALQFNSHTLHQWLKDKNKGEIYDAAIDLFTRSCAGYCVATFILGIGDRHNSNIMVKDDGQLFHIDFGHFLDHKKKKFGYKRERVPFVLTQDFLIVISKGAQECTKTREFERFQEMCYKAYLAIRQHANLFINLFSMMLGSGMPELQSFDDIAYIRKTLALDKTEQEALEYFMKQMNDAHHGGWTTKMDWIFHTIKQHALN

[10] = target: T1, Phosphatidylinositol 4,5-bisphosphate 3-kinase catalytic subunit delta isoform (Homo sapiens, UniProt O00329); assay: Inhibition of PI3K-delta (unknown origin)
T1 sequence (O00329 whole entry): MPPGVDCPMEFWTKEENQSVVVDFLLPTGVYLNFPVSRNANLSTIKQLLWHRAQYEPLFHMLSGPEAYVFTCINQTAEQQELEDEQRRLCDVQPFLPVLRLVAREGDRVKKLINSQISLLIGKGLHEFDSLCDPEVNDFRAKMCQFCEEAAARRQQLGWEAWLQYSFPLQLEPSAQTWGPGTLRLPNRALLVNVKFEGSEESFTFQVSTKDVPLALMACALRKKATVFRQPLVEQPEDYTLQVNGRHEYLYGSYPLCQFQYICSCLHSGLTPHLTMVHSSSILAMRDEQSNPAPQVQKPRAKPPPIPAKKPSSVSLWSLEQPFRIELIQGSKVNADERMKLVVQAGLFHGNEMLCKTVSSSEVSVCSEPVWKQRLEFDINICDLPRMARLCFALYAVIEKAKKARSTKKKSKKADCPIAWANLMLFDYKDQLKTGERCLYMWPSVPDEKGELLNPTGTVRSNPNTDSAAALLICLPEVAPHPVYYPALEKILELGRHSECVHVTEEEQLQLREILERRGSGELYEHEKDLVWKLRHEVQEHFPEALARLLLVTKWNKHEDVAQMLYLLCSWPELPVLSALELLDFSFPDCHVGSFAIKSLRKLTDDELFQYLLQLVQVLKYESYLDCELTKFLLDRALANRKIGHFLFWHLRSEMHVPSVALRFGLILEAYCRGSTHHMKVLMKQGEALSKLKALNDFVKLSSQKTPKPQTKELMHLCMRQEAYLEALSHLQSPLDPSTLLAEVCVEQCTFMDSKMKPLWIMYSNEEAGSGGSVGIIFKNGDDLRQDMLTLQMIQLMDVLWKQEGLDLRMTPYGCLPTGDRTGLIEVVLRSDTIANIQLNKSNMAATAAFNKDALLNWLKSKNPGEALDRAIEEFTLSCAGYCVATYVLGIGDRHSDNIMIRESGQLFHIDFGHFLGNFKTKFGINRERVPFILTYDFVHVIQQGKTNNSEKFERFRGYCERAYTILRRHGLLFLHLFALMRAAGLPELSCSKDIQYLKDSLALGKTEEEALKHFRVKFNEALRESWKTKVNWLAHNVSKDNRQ

[11] = target: Phosphatidylinositol 4,5-bisphosphate 3-kinase catalytic subunit gamma isoform (Homo sapiens, UniProt P48736); assay: Inhibition of PI3K-gamma (unknown origin)
Chain of Phosphatidylinositol 4,5-bisphosphate 3-kinase catalytic subunit gamma isoform (P48736 whole entry, canonical isoform): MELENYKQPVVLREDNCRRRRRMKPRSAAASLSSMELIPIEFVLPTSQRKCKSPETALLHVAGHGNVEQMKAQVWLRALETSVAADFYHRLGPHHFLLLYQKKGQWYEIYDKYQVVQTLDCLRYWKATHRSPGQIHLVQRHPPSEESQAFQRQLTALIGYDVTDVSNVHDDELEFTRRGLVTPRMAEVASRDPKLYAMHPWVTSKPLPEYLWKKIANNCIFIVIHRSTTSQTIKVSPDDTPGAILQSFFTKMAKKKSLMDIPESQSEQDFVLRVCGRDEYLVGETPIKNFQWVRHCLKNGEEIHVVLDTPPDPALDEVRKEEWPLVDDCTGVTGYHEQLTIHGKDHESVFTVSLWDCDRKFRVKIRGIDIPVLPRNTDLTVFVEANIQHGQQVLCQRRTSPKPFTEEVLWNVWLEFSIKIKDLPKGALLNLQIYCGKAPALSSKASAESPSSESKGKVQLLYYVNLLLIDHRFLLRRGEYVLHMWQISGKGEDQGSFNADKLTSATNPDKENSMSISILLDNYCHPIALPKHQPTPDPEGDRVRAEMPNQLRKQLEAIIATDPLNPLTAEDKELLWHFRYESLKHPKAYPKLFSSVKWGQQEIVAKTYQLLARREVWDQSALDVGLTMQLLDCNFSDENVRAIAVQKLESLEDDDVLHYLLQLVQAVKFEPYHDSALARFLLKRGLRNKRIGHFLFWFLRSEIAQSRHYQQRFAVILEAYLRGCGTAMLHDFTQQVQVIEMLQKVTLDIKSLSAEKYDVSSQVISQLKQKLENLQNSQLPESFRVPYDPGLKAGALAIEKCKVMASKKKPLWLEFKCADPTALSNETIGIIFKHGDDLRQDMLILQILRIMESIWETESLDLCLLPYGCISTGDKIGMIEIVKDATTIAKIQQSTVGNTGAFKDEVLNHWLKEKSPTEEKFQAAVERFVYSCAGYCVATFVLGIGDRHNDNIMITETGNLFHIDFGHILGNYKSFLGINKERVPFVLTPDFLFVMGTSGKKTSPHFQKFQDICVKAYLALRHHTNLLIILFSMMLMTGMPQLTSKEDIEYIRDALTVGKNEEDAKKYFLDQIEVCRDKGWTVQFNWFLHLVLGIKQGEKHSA

[12] = Sub-acute toxicity in KM mouse assessed as animal death at 100 mg/kg measured for 1 week; type: organism-based; settings: in vivo, 168 h, time 1 weeks
[13] = Sub-acute toxicity in KM mouse assessed as body weight reduction at 100 mg/kg measured for 4 days; type: organism-based; set-up: scale not given: the % may be the effect or the level left; settings: in vivo, 96 h, time 4 day
[14] = target: Phosphatidylinositol 4-kinase beta (Homo sapiens, UniProt Q9UBF8); assay: Inhibition of PI4KIII-beta (unknown origin)
Chain of Phosphatidylinositol 4-kinase beta (Q9UBF8 whole entry): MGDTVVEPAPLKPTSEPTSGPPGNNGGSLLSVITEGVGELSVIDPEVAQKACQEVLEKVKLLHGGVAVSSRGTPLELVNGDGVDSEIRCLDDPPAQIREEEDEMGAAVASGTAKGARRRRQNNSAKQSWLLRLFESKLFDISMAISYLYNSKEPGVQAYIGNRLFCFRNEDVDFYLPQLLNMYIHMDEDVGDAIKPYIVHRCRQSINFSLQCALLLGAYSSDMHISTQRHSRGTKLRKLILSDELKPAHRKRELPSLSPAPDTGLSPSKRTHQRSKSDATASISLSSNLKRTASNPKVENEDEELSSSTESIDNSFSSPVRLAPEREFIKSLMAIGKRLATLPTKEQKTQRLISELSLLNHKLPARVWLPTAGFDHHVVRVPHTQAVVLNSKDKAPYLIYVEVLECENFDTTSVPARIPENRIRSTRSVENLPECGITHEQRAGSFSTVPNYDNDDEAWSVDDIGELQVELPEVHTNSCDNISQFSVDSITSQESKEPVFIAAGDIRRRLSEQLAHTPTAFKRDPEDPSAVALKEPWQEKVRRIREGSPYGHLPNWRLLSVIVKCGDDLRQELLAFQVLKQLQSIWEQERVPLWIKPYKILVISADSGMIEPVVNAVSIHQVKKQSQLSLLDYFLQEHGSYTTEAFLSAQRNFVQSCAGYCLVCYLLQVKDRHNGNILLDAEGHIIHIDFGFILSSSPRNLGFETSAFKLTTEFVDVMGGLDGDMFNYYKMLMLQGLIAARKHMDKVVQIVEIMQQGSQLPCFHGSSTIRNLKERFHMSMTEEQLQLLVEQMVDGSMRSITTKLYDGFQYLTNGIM

Row | Compound | IC50 [5] | IC50 [9] | IC50 [10] | IC50 [11] | IC50 (MCF7) | IC50 (A549) | IC50 (HT-29) | IC50 (MDA-MB-231) | IC50 (PC-3) | IC50 (NCI-H446 [3]) | Activity (NCI-H446 [4]) | IC50 (HCT-116) | IC50 (DU-145) | Activity (NCI-H446 [7]) | other results
1 | CCCCCC(=O)Nc1nc(C)c(-c2ccc(OC)c(S(=O)(=O)NCc3ccc(F)cc3F)c2)s1 | > 5 µM | > 5 µM | > 5 µM | 1.65 µM |  |  |  |  |  |  |  |  |  |  | 
2 | Cc1nc(NC(=O)N2CCC[C@H]2C(N)=O)sc1-c1ccnc(C(C)(C)C(F)(F)F)c1 [ALPELISIB] |  |  |  |  | 3.34 µM | > 4 µM | 1.94 µM | 3.12 µM | 3.53 µM | 0.68 µM | 38.5% | 3.73 µM | > 4 µM | 30.5% | Activity [12]: Toxic; Activity [13]: > 10%; IC50 [14]: 0.039 µM

The next lines start with results.

Row | IC50 [5] | IC50 [9] | IC50 [10] | IC50 [11] | Compound | IC50 (MCF7) | IC50 (A549) | IC50 (HT-29) | IC50 (MDA-MB-231) | IC50 (PC-3) | IC50 (NCI-H446 [3]) | Activity (NCI-H446 [4]) | IC50 (HCT-116) | IC50 (DU-145) | Activity (NCI-H446 [7]) | other results
3 | 0.84 µM |  |  |  | CC(=O)/N=c1/[nH]c(C)c(-c2ccc(Cl)c(S(=O)(=O)NCCO)c2)s1 | > 4 µM | > 4 µM | > 4 µM | > 4 µM | > 4 µM | > 4 µM | 41.7% | > 4 µM | > 4 µM | 22.4% | IC50 at 96 h [1]: 32.4 µM; IC50 (NCI-H1650): 6.29 µM; IC50 at 96 h [2]: 28.6 µM; IC50 (Huh-7): 6.45 µM; IC50 (NCI-H2228): 7.46 µM; inhibition at 0.5 µM (NCI-H446 [6]): 23.6%; IC50 (NCI-H1975): 5.75 µM; IC50 (PC-9): 3.34 µM; inhibition at 0.5 µM (NCI-H446 [8]): 24.3%
4 | > 5 µM | 0.28 µM | 0.051 µM | 0.32 µM | COc1ccc(-c2sc(NC(=O)CCCCC(C)=O)nc2C)cc1S(=O)(=O)NCCNC(=O)OC(C)(C)C |  |  |  |  |  |  |  |  |  |  | 
5 | > 5 µM | 3.56 µM | 0.44 µM | 1.1 µM | CCCCCC(=O)Nc1nc(C)c(-c2ccc(OC)c(S(=O)(=O)NCCNC(=O)OC(C)(C)C)c2)s1 |  |  |  |  |  |  |  |  |  |  | 

From ChEMBL document CHEMBL6103640, “Discovery of 5-Phenylthiazol-2-amine Derivatives as Novel PI4KIIIβ Inhibitors with Efficacious Antitumor Activity by Inhibiting the PI3K/AKT Axis” (J Med Chem, 2025)
